The nature of data set [1]: In vitro hemolytic assay. It is filed as cell-based. The note with it: 2% erythrocyte suspension (washed red blood cells); 2% erythrocyte suspension, 3 μl of 1 mg/ml compound in DMF per 240 μl well, 37°C 30 min, absorbance 405 nm; <5% considered nontoxic. The protocol:
Compounds 5a-x and 6a-h were subjected to the in vitro hemolytic assay to identify those which cause hemolysis to red blood cells (RBCs). Consequently, these compounds would be toxic in vivo so they were excluded from further biological screening.
Blood samples (5 ml) were freshly collected into heparinized tubes and were centrifuged (1000 r.p.m. for 20 min) at room temperature. The plasma and buffy coat were removed by Pasteur pipette, and the collected erythrocytes were washed three-times using isotonic buffer solution (0.9% sodium chloride [Sigma-Aldrich, MO, USA]) by centrifugation (2500 r.p.m. for 10 min). A two percent erythrocyte suspension was prepared to be used in the assay.
A 1 mg/ml stock solution of each compound was prepared in DMF (Sigma-Aldrich). Compound wells were prepared by adding 3 μl of the compound solution to 117 μl isotonic buffer solution and 120 μl erythrocyte suspension. Compounds color blank wells were prepared by adding 3 μl compound to 237 μl isotonic buffer solution. Solvent (DMF) wells were prepared by adding 3 μl DMF to 117 μl isotonic buffer solution and 120 μl erythrocyte suspension. Positive control wells (representing 100% hemolysis) were prepared by adding 120 μl erythrocyte suspension to 120 μl distilled water, while negative control wells (representing 0% hemolysis) were prepared by adding 120 μl erythrocyte suspension to 120 μl isotonic buffer solution. Finally, blank wells contained only 240 μl isotonic buffer solution. Each set of samples was pipetted in triplicate. The microtiter plate was then shaken well on bench, incubated at 37°C for 30 min then centrifuged (2000 rpm for 5 min) at room temperature.
A fraction of the supernatant layer (150 μl) of each well was transferred to another 96-well microtiter plate. Erythrocyte hemolysis was determined by reading the absorbance (A) of liberated hemoglobin at 405 nm in the supernatant fraction compared with the 100% hemolysis of erythrocyte. The average value was calculated from triplicate assay: [drawing 2]

Data set [2] concerns human peripheral blood mononuclear cells (PBMCs). It is filed as cell-based. The note with it: 72 h. On the procedure:
The safe compounds on RBCs (5a-g, 5i-l, 5p-r, 5v-w, 6b-g) were subjected to the in vitro cytotoxicity assay on human peripheral blood mononuclear cells (PBMCs). Viability of cells was measured using neutral red uptake assay as described by Borenfreund and Puerner to determine the concentrations of each compound that were not cytotoxic. The results were interpreted to calculate both the lethal concentration that kills 50% of cells (LD50) and the maximum safe concentration that causes 100% viability (LD0) of each compound using GraphPad InStat 3.0 software (Figure 6 & Supplementary Table 3).
The PBMCs were isolated by density gradient centrifugation technique as described by Boyum. Blood samples were freshly collected into heparinized or ethylenediaminetetraacetic acid sterile tubes. Blood was diluted using equal volume of RPMI-1640 medium containing 25 mM HEPES and then layered over equal volume of Ficoll-Pague™ Plus (Fisher BioReagents™ Lymphocyte Separation Medium-LSM, PA, USA) and centrifuged (2000 r.p.m. for 30 min at acceleration and deceleration speeds zero & zero) at room temperature. The buffy mononuclear cell layer was collected using sterile Pasteur pipette into 50 ml sterile Falcon tube and washed twice in phosphate-buffered saline (Sigma-Aldrich) using centrifugation (1650 r.p.m. for 5 min). The isolated PBMCs viability was determined by hemocytometer count using the trypan blue exclusion method. The PBMCs were resuspended at 1 × 10^6 cells/ml in RPMI-1640 medium containing 25 mM HEPES supplemented with 10% heat-inactivated FBS. The appropriate number of cells was chosen to be 1 × 10^5 cells/well (100 μl of the prepared suspension).
A 2 mg/ml stock solution of each compound was prepared in DMF and filtered using a 0.2 μM syringe filter. The desired concentrations (20, 10, 5, 2.5 and 1.25 μg/ml) were prepared using serial dilution in a 96-well plate. Compound wells were prepared by adding 100 μl of the previously prepared concentrations to a suspension of 1 × 10^5 PBMCs in 100 μl culture media. Parallel concentrations of the solvent were prepared to be used as controls. Control wells were prepared by adding 100 μl culture media to a suspension of 1 × 10^5 PBMCs in 100 μl culture media. Blank wells contained 200 μl of culture media only (without cells or compound solution). Each set of samples was pipetted in duplicate. The plate was then gently shaken then incubated at 37°C, 5% CO2 for 72 h.
After incubation, neutral red assay was performed as described previously, and surviving cell fraction was calculated according to the previously mentioned equation. Also, the results were interpreted to calculate both the lethal concentration that kills 50% of cells (LD50) and the maximum safe concentration that cause 100% viability (LD0) of each compound using GraphPad InStat 3.0 software.

The structures appear in SMILES notation.

In turn, `COc1ccc(-c2nn(-c3ccccc3)cc2C=C2SC(=NN=C(C)c3nc4ccccc4[nH]3)N(c3ccc(Cl)cc3)C2=O)cc1` [Compound 5r, 2-[1-(1H-Benzimidazole-2-yl)ethylidenehydrazono]-5-{[3-(4-methoxyphenyl)-1-phenyl-1H-pyrazol-4-yl]methylene}-3-(4-chlorophenyl)thiazolidin-4-one] registered a hemolysis at 30 min, 12.5 µg/ml in data set [1] of 1.87%. For the same compound, in data set [2], the “(LD0) PBMCs” value turned out to be 7.33 µg/mL, the LD0 stood at 7.33 µg/mL, the LD50 worked out at 44.00 µg/mL and the “LD50 (PBMCs)” value stood at 44.00 µg/mL.

Regarding `CC(=NN=C1SC(=Cc2cn(-c3ccccc3)nc2-c2ccccc2)C(=O)N1C1CCCCC1)c1nc2ccccc2[nH]1` [Compound 5v, 2-[1-(1H-Benzimidazole-2-yl)ethylidenehydrazono]-5-[(1,3-Diphenyl-1H-pyrazol-4-yl)methylene]-3-cyclohexylthiazolidin-4-one], the hemolysis at 30 min, 12.5 µg/ml in data set [1] is 3.66%. Also, in data set [2], the “(LD0) PBMCs” value stood at 13.85 µg/mL, the LD0 came to 13.85 µg/mL and the LD50 turned out to be 43.40 µg/mL.

The compound `CC(=NN=C1SC(=Cc2cn(-c3ccccc3)nc2-c2ccc(Cl)cc2)C(=O)N1C1CCCCC1)c1nc2ccccc2[nH]1` [Compound 5w, 2-[1-(1H-Benzimidazole-2-yl)ethylidenehydrazono]-5-{[3-(4-chlorophenyl)-1-phenyl-1H-pyrazol-4-yl]methylene}-3-cyclohexylthiazolidin-4-one] returned a hemolysis at 30 min, 12.5 µg/ml in data set [1] of 3.53%. Also, in data set [2], the “(LD0) PBMCs” value stood at 16.03 µg/mL, the LD0 was determined as 16.03 µg/mL and the LD50 was found to be 36.28 µg/mL.

On to `CC(=NN=C1SC(=C2C(=O)Nc3ccccc32)C(=O)N1c1ccc(Cl)cc1)c1cc2ccccc2o1` [Compound 6b, 2-[1-(Benzofuran-2-yl)ethylidenehydrazono]-5-(2-oxoindolin-3-ylidene)-3-(4-chlorophenyl)thiazolidin-4-one], for which the hemolysis at 30 min, 12.5 µg/ml in data set [1] worked out at 3.08%. Further, in data set [2], the “(LD0) PBMCs” value came to 18.18 µg/mL, the LD0 was determined as 18.18 µg/mL and the LD50 is 61.46 µg/mL.

Take `COc1ccc(N2C(=O)C(=C3C(=O)Nc4ccccc43)SC2=NN=C(C)c2cc3ccccc3o2)cc1` [Compound 6c, 2-[1-(Benzofuran-2-yl)ethylidenehydrazono]-5-(2-oxoindolin-3-ylidene)-3-(4-methoxyphenyl)thiazolidin-4-one]: the hemolysis at 30 min, 12.5 µg/ml in data set [1] was 4.02%. Further, in data set [2], the “(LD0) PBMCs” value came out at 11.41 µg/mL, the LD0 was 11.41 µg/mL, the LD50 is 28.67 µg/mL and the “LD50 (PBMCs)” value turned out to be 28.67 µg/mL.

As for `CC(=NN=C1SC(=C2C(=O)Nc3ccccc32)C(=O)N1C1CCCCC1)c1cc2ccccc2o1` [Compound 6d, 2-[1-(Benzofuran-2-yl)ethylidenehydrazono]-5-(2-oxoindolin-3-ylidene)-3-cyclohexylthiazolidin-4-one], the hemolysis at 30 min, 12.5 µg/ml in data set [1] was 1.31%. For the same compound, in data set [2], the “(LD0) PBMCs” value was 5.21 µg/mL, the LD0 turned out to be 5.21 µg/mL, the LD50 was found to be 14.32 µg/mL and the “LD50 (PBMCs)” value amounted to 14.32 µg/mL.

With `CC(=NN=C1SC(=C2C(=O)Nc3ccccc32)C(=O)N1c1ccccc1)c1nc2ccccc2[nH]1` [Compound 6e, 2-[1-(1H-Benzimidazole-2-yl)ethylidenehydrazono]-5-(2-oxoindolin-3-ylidene)-3-phenylthiazolidin-4-one], the hemolysis at 30 min, 12.5 µg/ml in data set [1] turned out to be 4.51%. In data set [2], the “(LD0) PBMCs” value is 19.22 µg/mL, the LD0 came to 19.22 µg/mL and the LD50 worked out at 329.03 µg/mL.

Turning to `CC(=NN=C1SC(=C2C(=O)Nc3ccccc32)C(=O)N1c1ccc(Cl)cc1)c1nc2ccccc2[nH]1` [Compound 6f, 2-[1-(1H-Benzimidazole-2-yl)ethylidenehydrazono]-5-(2-oxoindolin-3-ylidene)-3-(4-chlorophenyl)thiazolidin-4-one], the hemolysis at 30 min, 12.5 µg/ml in data set [1] is 1.01%. In data set [2], the “(LD0) PBMCs” value was found to be 253.34 µg/mL, the LD0 is 253.34 µg/mL, the “LD0 on PBMCs” value is recorded as “relatively high LD0 values” and the LD50 was found to be 1369.42 µg/mL.

Take `COc1ccc(N2C(=O)C(=C3C(=O)Nc4ccccc43)SC2=NN=C(C)c2nc3ccccc3[nH]2)cc1` [Compound 6g, 2-[1-(1H-Benzimidazole-2-yl)ethylidenehydrazono]-5-(2-oxoindolin-3-ylidene)-3-(4-methoxyphenyl)thiazolidin-4-one]: the hemolysis at 30 min, 12.5 µg/ml in data set [1] is 2.65%. Further, in data set [2], the “(LD0) PBMCs” value was 14.41 µg/mL, the LD0 came to 14.41 µg/mL and the LD50 was determined as 136.76 µg/mL.

Values taken from article PMC5729604, “Dual inhibitors of hepatitis C virus and hepatocellular carcinoma: design, synthesis and docking studies” (Future Science OA, 2017).
